This is an account of results in patent US20190127381A1, “SUBSTITUTED FUSED PYRIMIDINONE COMPOUNDS” (TORRENT PHARMACEUTICALS LIMITED, priority 2016, published 2019).

The test system of test [1] is cigarette smoke induced Neutrophil accumulation in BAL Fluid. Description: Acute guinea pig model of airway inflammation (tobacco smoke, COPD). The class given is in vivo. Conditions: for % Inhibition of neutrophil against vehicle group: exposure 56 minutes; for Neutrophil (*10^6 cells/animal) in BAL fluid: whole body aerosol exposure 56 minutes, day 6 to day 11, Mean ± SEM. The source says:
The tobacco smoke induced airway inflammation model is used for in vivo efficacy of compound. Many investigators have used acute tobacco smoke (TS) exposure in rodents as models of airway inflammation for quick screening of anti-inflammatory therapies for COPD (J Pharmacol Exp Ther. 2008; 324(3):921-9; J Pharmacol Exp Ther. 2010; 332(3):764-75; Journal of Inflammation 2013, 10(Suppl 1):31 and Eur Respir J Suppl 2006; 663s:3850). Given its position as predominant cause of COPD, animal models using TS exposure would appear to be the logical choice for investigation (Respir Res. 2004; 2;5:18).
Guinea pigs were exposed to tobacco smoke (TS) in an acrylic chamber. Animals were exposed to TS from 5, 10, 15 cigarettes on day 1, day 2, day 3 respectively. From day 4 onwards till day 11, animals were exposed to TS from 15 cigarettes per day. On 11 days of exposure of guinea pig to TS, significant inflammatory cell recruitment, predominantly neutrophils, to lungs was observed as compared to air exposed control guinea pig (BALF neutrophil levels, 0.59±0.15*10^6 cells/animal in air control group vs 8.3±1.4*10^6cells/animal in smoke exposed vehicle group)
Lung delivery of test compound was achieved by whole body aerosol exposure using nebulizer for 56 minutes in a chamber. Guinea pig were divided in different dose groups and exposed in a chamber for 56 minutes with vehicle or Compound No. 39 (1 mg/ml or 3 mg/ml). A total quantity of 6.0 ml of either vehicle or test compound formulation was nebulized in chambers to respective groups over 56 mins period. Test compound was administered 2 hr prior to TS exposure from day 6 to day 11. Bronchoalveolar lavage (BAL) was performed 24 hr post last TS exposure.
Trachea of animal was cannulated using catheter. Phosphate Buffer Saline (PBS) was used as lavage fluid. A volume of 5.0 ml was gently instilled and withdrawn and collected in microcentrifuge tube placed on ice. This procedure was repeated further 5 times.
(§1) Lavage fluid was separated from cells by centrifugation and supernatant separated. The cell pallet was resuspended in known volume of PBS. Cells in aliquot were stained using Turk solution and total cell numbers were calculated by counting Turk stained aliquot under microscope using haemocytometer.
The residual cell suspension was resuspended and slides prepared using cyto centrifuge technique (Cytospin 4, Thermo Shandon). […] Up to 300 cells were counted and differentiated using standard morphometric techniques under light microscopy.
All results are presented at individual data for each animal and mean value calculated for each group. Percentage inhibition for the neutrophil was calculated for Compound No 39 treatment group against vehicle group.

Test [2] concerns the target T1, purified recombinant human PI3K enzyme γ (Homo sapiens, UniProt P48736).
T1 construct: purchased Invitrogen, USA
In words: Inhibition of PI3-Kinase enzymatic activity (HTRF enzyme assay), γ. The class given is biochemical. Conditions: 1 μM compound; PI3K γ 100 ng/well; PIP2 10 μM; ATP 50 μM; read-out: Percentage inhibition of PI3K activity, γ. Put shortly: (§2)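 HTRF assay with compound at 1 μM (1.0% DMSO), recombinant human PI3Kδ (50 ng/well) or γ (100 ng/well) and PIP2 (10 μM), preincubated 15 min at room temperature. ATP (δ 200 μM, γ 50 μM) was then added for 30 min at room temperature. Percent inhibition was derived from the 665/615 nm signal ratio.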
Background: TR-FRET usually uses a lanthanide donor and a delayed reading to cut background.

Test [3] has as its target T2, purified recombinant human PI3K enzyme δ (Homo sapiens, UniProt O00329).
T2 construct: purchased Invitrogen, USA
In words: Inhibition of PI3-Kinase enzymatic activity (HTRF enzyme assay), δ. Conditions: 1 μM compound; PI3K δ 50 ng/well; PIP2 10 μM; ATP 200 μM; read-out: Percentage inhibition of PI3K activity, δ. Type of test: biochemical. Put shortly:
as §2

Test [4] has as its system OVA induced pulmonary inflammatory cell accumulation in BAL fluid. In words: Ovalbumin (OVA) model of airway inflammation (asthma) in mice. Type of test: in vivo. To be noted: OVA challenge. How it is done: Allergen chicken egg ovalbumin (OVA) model, which shares features similar to human allergic asthma, including the presence of eosinophilic and lymphocytic lung inflammation, is frequently used for model for asthma. Ovalbumin is an inert protein that is not intrinsically immunogenic and therefore needs to be injected systemically in the presence of an adjuvant, typically aluminum hydroxide (alum), to induce Th2-driven response in mice (Curr. Protoc. Mouse Biol. 6:169-184, 2016).
Ovalbumin (20 μg) (OVA, Sigma Aldrich, St. Louis, Mo.), emulsified with inject alum (1 mg, 0.2 mL) was administered in mice intraperitoneally (i.p.) on days 1 and 14 for sensitization, and then challenged with OVA (0.5% w/v) exposure for 30 minutess using nebulizer on days 21, 22 and 23 in Compound no 44 treated and vehicle control animals. Saline control mice received normal saline as sensitization and challenge dose in similar fashion.
Lung delivery of compound of present invention was achieved by whole body aerosol exposure using nebulizer for 25 minutes in a chamber. Mice were divided in different dose groups and exposed in a chamber for 25 minutes with vehicle or Compound no 44 (1 mg/ml or 3 mg/ml). Test compound/vehicle was administered once daily for 5 days starting from day 20 till day 24. On each challenge day treatment was administered 2 hr before OVA challenge. Bronchoalveolar lavage (BAL) was performed 48 hr post last OVA exposure (i.e. on day 25).
Trachea of animal was cannulated using catheter. Phosphate Buffer Saline (PBS) was used as lavage fluid. A volume of 0.5 ml was gently instilled and withdrawn and collected in microcentrifuge tube placed on ice. This procedure was repeated further 3 times.
as §1
The residual cell suspension was resuspended with PBS and slides prepared using cyto centrifuge technique (Cytospin 4, Thermo Shandon). The slides were then fixed with methanol, air dried and stained with May Grunwald Giemsa stain. Up to 300 cells were counted and differentiated using standard morphometric techniques under light microscopy.
All results are presented at individual data for each animal and mean value calculated for each group. Percentage inhibition for each cell type is calculated as below.
% inhibition=[(Vehicle treatment−Drug treatment)/(Vehicle treatment−Saline treatment)]*100

Setting [5] is: 1 mg/ml nebulized 25 minutes once daily for 5 days.
Where [6] appears, read: 3 mg/ml nebulized 25 minutes once daily for 5 days.

T1 sequence (P48736 whole entry): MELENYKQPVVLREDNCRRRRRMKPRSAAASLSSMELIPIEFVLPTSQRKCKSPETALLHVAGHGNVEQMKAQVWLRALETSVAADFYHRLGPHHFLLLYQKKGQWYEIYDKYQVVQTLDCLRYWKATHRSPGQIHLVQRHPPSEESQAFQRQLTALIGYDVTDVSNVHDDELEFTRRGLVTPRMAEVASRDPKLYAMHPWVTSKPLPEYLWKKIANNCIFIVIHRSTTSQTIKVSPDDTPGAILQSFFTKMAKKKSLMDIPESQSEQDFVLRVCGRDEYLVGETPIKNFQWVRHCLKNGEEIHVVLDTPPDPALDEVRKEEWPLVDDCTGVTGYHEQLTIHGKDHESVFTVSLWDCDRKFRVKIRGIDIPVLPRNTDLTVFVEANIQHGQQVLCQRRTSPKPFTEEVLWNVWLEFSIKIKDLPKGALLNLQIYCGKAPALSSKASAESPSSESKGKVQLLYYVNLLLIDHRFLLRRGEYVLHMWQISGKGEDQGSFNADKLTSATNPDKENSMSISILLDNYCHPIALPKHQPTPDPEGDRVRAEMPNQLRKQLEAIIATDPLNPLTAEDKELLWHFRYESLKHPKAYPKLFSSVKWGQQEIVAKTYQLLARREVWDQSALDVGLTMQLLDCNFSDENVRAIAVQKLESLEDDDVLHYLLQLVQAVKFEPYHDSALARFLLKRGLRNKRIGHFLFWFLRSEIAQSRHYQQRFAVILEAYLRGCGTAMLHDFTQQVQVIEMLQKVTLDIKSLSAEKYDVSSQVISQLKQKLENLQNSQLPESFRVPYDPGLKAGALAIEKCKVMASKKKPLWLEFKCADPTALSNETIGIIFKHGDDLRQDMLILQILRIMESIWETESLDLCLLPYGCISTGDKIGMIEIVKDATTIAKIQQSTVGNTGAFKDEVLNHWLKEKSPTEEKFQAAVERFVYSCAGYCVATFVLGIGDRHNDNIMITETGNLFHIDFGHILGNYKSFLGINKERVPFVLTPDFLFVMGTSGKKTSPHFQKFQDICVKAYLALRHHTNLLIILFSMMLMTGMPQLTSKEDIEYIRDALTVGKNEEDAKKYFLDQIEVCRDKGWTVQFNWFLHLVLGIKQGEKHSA
T2 sequence (O00329 whole entry): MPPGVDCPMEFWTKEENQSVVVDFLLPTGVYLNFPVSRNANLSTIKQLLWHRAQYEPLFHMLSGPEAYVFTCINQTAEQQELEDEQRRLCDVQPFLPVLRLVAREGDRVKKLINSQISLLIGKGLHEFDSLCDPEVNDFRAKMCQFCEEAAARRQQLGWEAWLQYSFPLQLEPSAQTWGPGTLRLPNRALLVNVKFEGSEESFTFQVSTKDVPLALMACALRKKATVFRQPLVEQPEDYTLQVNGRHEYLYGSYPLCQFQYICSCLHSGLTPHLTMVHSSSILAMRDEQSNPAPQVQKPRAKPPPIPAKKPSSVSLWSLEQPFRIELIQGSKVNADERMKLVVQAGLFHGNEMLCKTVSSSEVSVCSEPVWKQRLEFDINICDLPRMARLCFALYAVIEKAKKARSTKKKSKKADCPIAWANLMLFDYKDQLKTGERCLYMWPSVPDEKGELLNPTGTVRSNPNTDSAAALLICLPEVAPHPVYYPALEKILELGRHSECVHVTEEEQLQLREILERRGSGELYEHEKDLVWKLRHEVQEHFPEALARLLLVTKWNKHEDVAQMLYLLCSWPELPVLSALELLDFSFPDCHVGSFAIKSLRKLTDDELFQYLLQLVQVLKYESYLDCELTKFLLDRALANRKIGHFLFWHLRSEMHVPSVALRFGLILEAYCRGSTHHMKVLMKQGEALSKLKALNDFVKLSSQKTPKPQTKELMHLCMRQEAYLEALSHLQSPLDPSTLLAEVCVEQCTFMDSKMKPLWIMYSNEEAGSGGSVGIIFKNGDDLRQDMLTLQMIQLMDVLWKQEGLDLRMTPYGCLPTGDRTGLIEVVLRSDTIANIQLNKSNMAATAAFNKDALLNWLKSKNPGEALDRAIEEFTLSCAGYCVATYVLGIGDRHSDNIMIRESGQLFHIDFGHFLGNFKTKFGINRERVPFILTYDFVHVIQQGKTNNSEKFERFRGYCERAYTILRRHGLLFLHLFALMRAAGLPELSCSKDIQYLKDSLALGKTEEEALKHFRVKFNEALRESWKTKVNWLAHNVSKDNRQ
T2 sequence (P27986 whole entry partner): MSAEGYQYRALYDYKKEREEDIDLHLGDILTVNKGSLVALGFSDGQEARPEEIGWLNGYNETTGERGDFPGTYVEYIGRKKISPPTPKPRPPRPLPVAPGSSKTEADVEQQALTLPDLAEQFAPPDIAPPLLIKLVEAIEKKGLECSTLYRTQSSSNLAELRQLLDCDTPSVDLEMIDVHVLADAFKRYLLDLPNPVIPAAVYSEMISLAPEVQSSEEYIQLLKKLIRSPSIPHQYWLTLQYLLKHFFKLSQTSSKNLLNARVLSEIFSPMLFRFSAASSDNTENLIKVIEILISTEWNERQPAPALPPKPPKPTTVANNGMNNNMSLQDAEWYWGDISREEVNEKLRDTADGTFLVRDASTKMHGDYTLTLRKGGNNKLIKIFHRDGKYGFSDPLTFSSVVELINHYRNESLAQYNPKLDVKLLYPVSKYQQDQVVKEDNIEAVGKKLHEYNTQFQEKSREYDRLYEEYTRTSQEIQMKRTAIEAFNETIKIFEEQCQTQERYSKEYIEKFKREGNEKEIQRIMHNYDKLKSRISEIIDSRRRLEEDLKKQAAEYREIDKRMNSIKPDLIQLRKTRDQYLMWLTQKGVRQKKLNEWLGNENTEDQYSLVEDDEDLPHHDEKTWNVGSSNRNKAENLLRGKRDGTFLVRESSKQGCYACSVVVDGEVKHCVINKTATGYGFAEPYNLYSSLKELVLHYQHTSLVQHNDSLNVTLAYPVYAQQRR

In the case of `Cc1cccc2nc(Cn3nc(-c4ccc(O)c5c4CC(C)(C)O5)c4c(N)ncnc43)n(-n3c(C)ccc3C)c(=O)c12` [Compound No. 39, 2-{[4-amino-3-(7-hydroxy-2,2-dimethyl-2,3-dihydro-1-benzofuran-4-yl)-1H-pyrazolo[3,4-d]pyrimidin-1-yl]methyl}-3-(2,5-dimethyl-1H-pyrrol-1-yl)-5-methylquinazolin-4(3H)-one], the “% Inhibition of neutrophil against vehicle group” value in test [1] (1 mg/ml nebulized) is recorded as 22%; in test [1] (3 mg/ml nebulized) it was 68%. The “Neutrophil (*10^6 cells/animal) in BAL fluid” value in test [1] (1 mg/ml nebulized) was 6.5 ± 3.2 *10^6 cells/animal; in test [1] (3 mg/ml nebulized), 2.7 ± 1.4 *10^6 cells/animal. In addition, the inhibition at 1 µM in test [2] and in test [3] was 80 to 100% throughout.
Turning to `Cn1cc(-c2cccc3nc(Cn4nc(-c5ccc(O)c6c5CC(C)(C)O6)c5c(N)ncnc54)n(-n4cccc4)c(=O)c23)cn1` [Compound No. 44, 2-{[4-amino-3-(7-hydroxy-2,2-dimethyl-2,3-dihydro-1-benzofuran-4-yl)-1H-pyrazolo[3,4-d]pyrimidin-1-yl]methyl}-5-(1-methyl-1H-pyrazol-4-yl)-3-(1H-pyrrol-1-yl)quinazolin-4(3H)-one], the inhibition at 1 µM in test [2] and in test [3] was 80 to 100% each time. Also, the “reduced eosinophil influx (% inhibition) in BAL fluid” value turned out to be 42% in test [4] (setting [5]) and 56% in test [4] (setting [6]). For the same compound, the “reduced lymphocyte influx (% inhibition) in BAL fluid” value in test [4] (setting [5]) is given as 27%; in test [4] (setting [6]) it was 39%.
In the case of `COc1ccc(-c2nn(Cc3nc4cccc(C)c4c(=O)n3-n3c(C)ccc3C)c3ncnc(N)c23)c2c1OC(C)(C)C2` [compound 78, 2-{[4-amino-3-(7-methoxy-2,2-dimethyl-2,3-dihydro-1-benzofuran-4-yl)-1H-pyrazolo[3,4-d]pyrimidin-1-yl]methyl}-3-(2,5-dimethyl-1H-pyrrol-1-yl)-5-methylquinazolin-4(3H)-one], the results for the inhibition at 1 µM in test [2] and in test [3] were 60 to 80% and 80 to 100%, respectively.
For `Cc1ccc(C)n1-n1c(Cn2nc(-c3ccc(O)c4c3CC(C)(C)O4)c3c(N)ncnc32)nc2ccccc2c1=O` [compound 88, 2-{[4-amino-3-(7-hydroxy-2,2-dimethyl-2,3-dihydro-1-benzofuran-4-yl)-1H-pyrazolo[3,4-d]pyrimidin-1-yl]methyl}-3-(2,5-dimethyl-1H-pyrrol-1-yl)quinazolin-4(3H)-one] the same measures were 80 to 100% and 80 to 100%.
